Values of other authors in patent US20070098804A1, “Solid particulate tadalafil having a bimodal particle size distribution” (priority 2005, published 2007).

Conditions: crystalline solid, reported in the PDR

- solubility in water: practically insoluble in water
Structure (SMILES): CN1CC(=O)N2[C@H](c3ccc4c(c3)OCO4)c3[nH]c4ccccc4c3C[C@@H]2C1=O [Tadalafil]
